This note sets out measurements from EP2518054A1, “AMIDE COMPOUND” (Takeda Pharmaceutical Company Limited, priority 2009, dated 2011).

For orientation: EC50 means the concentration needed to bring the measured effect to its halfway point.

The subject of assay [1] is methamphetamine-induced locomotor hyperactivity in mice. Description: Inhibition test of methamphetamine-induced locomotor hyperactivity. The note with it: test compound 10 mg/kg body weight orally, male ICR mice; methamphetamine 2 mg/kg s.c. 60 min later; locomotor activity counted over 150 min, versus vehicle group. It is filed as in vivo. Here is the method:
Inhibition test of methamphetamine-induced locomotor hyperactivity
The compound of the present invention can be evaluated by assessing its capacity to inhibit methamphetamine-induced locomotor hyperactivity in mice. The method of Okuyama et al (Life Science, Vol. 65, p. 2109-2125 (1999)) was modified and used for testing the inhibition of methamphetamine-induced locomotor hyperactivity.
Locomotor activity was measured using a 32-channel locomotor activity measurement device MDC-LT (BrainScience Idea Co., Ltd.), which emits infrared beams from the top of a cage (30 x 40 x 20 cm). 6- to 8-Week-old male ICR mice were acclimated for at least 45 min in the measurement cages, and then either test compound (10 mg/kg body weight) dissolved in vehicle (0.5% aqueous methylcellulose solution) or the vehicle alone was orally administered. This oral administration was followed 60 min later by subcutaneous administration of methamphetamine (2 mg/kg body weight).
The number of times the laboratory animals passed through the infrared beams emitted inside the measurement cages in 150 min after administration of the test compound or vehicle was counted to quantify locomotor activity. The methamphetamine-induced locomotor hyperactivity inhibition rate (activity inhibition rate (%)) was calculated by the following equation. Activity inhibition rate (%) = {1-(locomotor activity of test compound treatment group after treatment with methamphetamine÷locomotor activity of vehicle treatment group after treatment with methamphetamine)}x 100 [formula] The results are shown in Table 3

The target of assay [2] is T1, human GPR52 (Homo sapiens, UniProt Q9Y2T5).
T1 construct: expressed in transfected cells; host or cells: CHO(dhfr-) cells
Put plainly: Increase of intracellular cAMP concentration in human GPR52-expressing CHO cell (AlphaScreen cAMP assay). It is filed as cell-based. Particulars: human GPR52-expressing CHO(dhfr-) cells; for activity at 1 µM: CHO, read-out: GPR52 agonist activity (%); for EC50: concentration of the test compound at which it shows 50% activity, read-out: GPR52 agonist activity EC50. The gist of the method: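 1×10^4 GPR52-expressing CHO(dhfr-) cells incubated 30 min at 37 °C with compound (10^-5 µM–10 µM) in HBSS, 0.5% BSA, 100 µM IBMX, 100 µM Ro20-1724, 5 mM HEPES pH 7.55; cAMP read by AlphaScreen. Agonism normalized to 1 µM reference agonist (100%) and DMSO (0%).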
For orientation: Alpha assays give light when donor and acceptor beads are brought close together.

The mark [3] stands for this setting: 1µM test compound, 100% = cAMP with 1 µM Reference Example 79, 0% = DMSO, 37°C, 30 min.

T1 sequence (Q9Y2T5 whole entry): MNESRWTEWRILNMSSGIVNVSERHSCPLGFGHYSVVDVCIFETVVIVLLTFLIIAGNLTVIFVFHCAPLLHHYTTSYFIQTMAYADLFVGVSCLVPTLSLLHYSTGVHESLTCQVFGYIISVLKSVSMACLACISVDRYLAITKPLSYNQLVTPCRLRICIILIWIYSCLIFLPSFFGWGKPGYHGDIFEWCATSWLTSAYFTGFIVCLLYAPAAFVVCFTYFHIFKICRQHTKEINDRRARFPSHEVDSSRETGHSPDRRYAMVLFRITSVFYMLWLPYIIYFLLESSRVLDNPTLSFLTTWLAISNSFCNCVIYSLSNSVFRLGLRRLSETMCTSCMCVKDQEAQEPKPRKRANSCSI

For `COCCNC(=O)c1cn(-c2cccc3cc(Cc4cccc(C(F)(F)F)c4)sc23)nc1C` [Example 14, N-(2-methoxyethyl)-3-methyl-1-[2-[3-(trifluoromethyl)benzyl]-1-benzothiophen-7-yl]-1H-pyrazole-4-carboxamide], the “Activity inhibition rate (%)” value in assay [1] turned out to be 53%. Further, in assay [2] (setting [3]), the activity at 1 µM was determined as 87%. Further, the EC50 in assay [2] came out at 14 nM.
Regarding `Cc1nn(-c2cccc3cc(Cc4cccc(C(F)(F)F)c4)sc23)cc1C(N)=O` [Example 17, 3-methyl-1-[2-[3-(trifluoromethyl)benzyl]-1-benzothiophen-7-yl]-1H-pyrazole-4-carboxamide], in assay [1], the “Activity inhibition rate (%)” value is recorded as 43%. Also, in assay [2] (setting [3]), the activity at 1 µM was 96%. For the same compound, the concentration giving a half-maximal response (EC50) in assay [2] worked out at 11 nM.
Taken in the same sequence, the figures for `Cc1nn(-c2cccc3cc(Cc4cccc(C(F)(F)F)c4)sc23)cc1C(=O)NCCO` [Example 15, N-(2-hydroxyethyl)-3-methyl-1-[2-[3-(trifluoromethyl)benzyl]-1-benzothiophen-7-yl]-1H-pyrazole-4-carboxamide] were 48%, 102% and 5.7 nM.
The matching figures for `Cc1nn(-c2ccc(F)c3cc(Cc4cccc(C(F)(F)F)c4)sc23)c(C)c1C(=O)NCC(N)=O` [Example 58, N-(2-amino-2-oxoethyl)-1-[4-fluoro-2-[3-(trifluoromethyl)benzyl]-1-benzothiophen-7-yl]-3,5-dimethyl-1H-pyrazole-4-carboxamide]: 47%, 92% and 40 nM.
Consider `COCCNC(=O)c1c(C)nn(-c2cccc3cc(Cc4cccc(C(F)(F)F)c4)sc23)c1C` [Example 51, N-(2-methoxyethyl)-3,5-dimethyl-1-[2-[3-(trifluoromethyl)benzyl]-1-benzothiophen-7-yl]-1H-pyrazole-4-carboxamide], for which the activity at 1 µM in assay [2] (setting [3]) was 102%.
On to `Cc1nn(-c2cccc3cc(Cc4cccc(C(F)(F)F)c4)sc23)c(CO)c1C(=O)NCCO` [Example 65, N-(2-hydroxyethyl)-5-(hydroxymethyl)-3-methyl-1-[2-[3-(trifluoromethyl)benzyl]-1-benzothiophen-7-yl]-1H-pyrazole-4-carboxamide], for which the “Activity inhibition rate (%)” value in assay [1] is 51%. Moreover, the activity at 1 µM in assay [2] (setting [3]) is 99%.
`Cc1nc(-c2cccc3cc(Cc4cccc(C(F)(F)F)c4)sc23)sc1C(=O)NCCO` [Example 39, N-(2-hydroxyethyl)-4-methyl-2-[2-[3-(trifluoromethyl)benzyl]-1-benzothiophen-7-yl]-1,3-thiazole-5-carboxamide]: the activity at 1 µM in assay [2] (setting [3]) is 93%.
`COCCNC(=O)c1sc(-c2cccc3cc(Cc4cccc(C(F)(F)F)c4)sc23)nc1C` [Example 40, N-(2-methoxyethyl)-4-methyl-2-[2-[3-(trifluoromethyl)benzyl]-1-benzothiophen-7-yl]-1,3-thiazole-5-carboxamide]: in assay [2] (setting [3]), the activity at 1 µM came to 90%.
Same read-out and setting: as for `COCCNC(=O)c1cnn(-c2cccc3cc(Cc4cccc(C(F)(F)F)c4)sc23)c1C` [Example 13, N-(2-methoxyethyl)-5-methyl-1-[2-[3-(trifluoromethyl)benzyl]-1-benzothiophen-7-yl]-1H-pyrazole-4-carboxamide], the figure is 79%; as for `Cc1cn(-c2cccc3cc(Cc4cccc(C(F)(F)F)c4)sc23)cc1C(=O)NCC(N)=O` [Example 12, N-(2-amino-2-oxoethyl)-4-methyl-1-[2-[3-(trifluoromethyl)benzyl]-1-benzothiophen-7-yl]-1H-pyrrole-3-carboxamide], 107%.
Regarding `Cc1nc(-c2cccc3nn(Cc4cc(F)cc(C(F)(F)F)c4)cc23)sc1C(N)=O` [Example 86, 2-[2-[3-fluoro-5-(trifluoromethyl)benzyl]-2H-indazol-4-yl]-4-methyl-1,3-thiazole-5-carboxamide], in assay [2] (setting [3]), the “GPR52 agonist activity (%)” value was found to be 102% and the activity at 1 µM was 85%.
With `Cc1nn(-c2cccc3oc(Cc4cccc(C(F)(F)F)c4)cc23)c(C)c1C(N)=O` [Example 76, 3,5-dimethyl-1-[2-[3-(trifluoromethyl)benzyl]-1-benzofuran-4-yl]-1H-pyrazole-4-carboxamide], in assay [2] (setting [3]), the activity at 1 µM was found to be 95%.
The same measure, in the same setting: the same measure for `COc1cc(Cc2cc3cccc(-n4nc(C)c(C(N)=O)c4C)c3s2)ccc1F` [Example 98, 1-[2-(4-fluoro-3-methoxybenzyl)-1-benzothiophen-7-yl]-3,5-dimethyl-1H-pyrazole-4-carboxamide]: 98%; for `Cc1nn(-c2ccc(F)c3cc(Cc4cccc(C(F)(F)F)c4)sc23)c(CO)c1C(=O)NCC(N)=O` [Example 72, N-(2-amino-2-oxoethyl)-1-[4-fluoro-2-[3-(trifluoromethyl)benzyl]-1-benzothiophen-7-yl]-5-(hydroxymethyl)-3-methyl-1H-pyrazole-4-carboxamide]: 96%.
On the same count and under the same terms, the same measure for `Cc1nn(-c2ccc(F)c3cc(Cc4cc(F)cc(Cl)c4)sc23)c(CO)c1C(=O)NCC(N)=O` [Example 89, N-(2-amino-2-oxoethyl)-1-[2-(3-chloro-5-fluorobenzyl)-4-fluoro-1-benzothiophen-7-yl]-5-(hydroxymethyl)-3-methyl-1H-pyrazole-4-carboxamide]: 99%.
